Where two headings read alike, the source gives them in different places.
What was measured:
[1] = system: ATQ-R5 (cytb F267V, parent 3D7); assay: Cross-resistance EC50 assay, ATQ-R5; format: cell-based, Plasmodium falciparum; conditions: Plasmodium falciparum, 3D7; SYBR green 72 hour assay; asynchronized parasites; 96-well or 1536-well format; ATQ-R5
Excerpt: (§1) To evaluate potential overlapping activity against known antimalarial drug targets, we performed dose-response studies with each compound against our assembled set of drug-resistant lines and their corresponding parents, in an asexual blood stage proliferation assay (Table 1). Comparisons were made to the drug-sensitive strain 3D7 when a parent was unavailable (TM90C2A, W2 and Dd2). As laboratories conducted EC50 assays with different strains and protocols, all comparisons were made between assays from the same laboratory and under the same assay conditions. Compounds displaying >5-fold EC50 shifts relative to the parent or sensitive strain were flagged as having potentially non-novel targets. Average fold shifts per strain ranged from 0.82 to 2.34, with a median of 1.23 indicating there was not common resistance to any one resistant clone. No resistance patterns were observed when classifying the compounds based on chemical structure, but this was not surprising given the diversity of compounds chosen. On the other hand, given that these confirmed compounds were derived from larger unconfirmed hit lists to which some filtration criteria may have been applied (for example, elimination of obvious dihydrofolate reductase inhibitors[32]), some[10][11][12][13] pre-existing bias may exist in the set. […]
(§2) Alternatively, a SYBR Green-based proliferation approach was used for the 72-h assay, as previously described. Briefly, a culture of either synchronized or asynchronous parasitized RBCs (0.3% parasitemia and 4% haematocrit) in screening medium (identical to supplemented medium above except no serum was added) was exposed to serial drug dilutions. Plates were incubated at 37 °C and gassed with 93% N2, 4% CO2 and 3% O2 for 72 h. Following incubation, 10 × SYBR Green I (Invitrogen; supplied in 10,000 × concentration) in lysis buffer ([…], 5 mM EDTA, 0.16% Saponin wt per vol and 1.6% Triton X vol per vol) was added to the wells and the plates were incubated overnight at room temperature before plate reading. EC50 assays were repeated three times, taking the average EC50 value from each assay set, and removing any outliers using a single iteration of Grubbs' test, eliminating values with z-scores above the critical z-value (α=0.05). The raw EC50 values for synchronized parasites assayed in a 384-well format are listed in Supplementary Data 4. The raw EC50 values for asynchronous parasites assayed in a 96 or 1536-well format are listed in Supplementary Data 5.
(§3) EC50 values for each strain were compared with those of the corresponding parent strain to determine fold-shift changes and identify resistance. To minimize the cause variance between assays, all comparisons were conducted between strains assayed under identical conditions. A one-way ANOVA followed by a Dunnet's post-test was conducted in GraphPad Prism to identify significant changes between the parent and resistant strain.

PfCRT-Q352R (parent Dd2) = assay: Cross-resistance EC50 assay, PfCRT-Q352R; format: cell-based; conditions: Plasmodium falciparum, DD2, 72 h, read-out: PfCRT:Q352R (Dd2 Parent) Average EC50
Excerpt: as §1, §2, §3

[2] = system: TM90C2A (DHFR, folate pathway; compared with 3D7); assay: Cross-resistance EC50 assay, TM90C2A; format: cell-based; conditions: Plasmodium falciparum, 48 h, read-out: TM90C2A (3D7 Parent) Average EC50
Excerpt: To evaluate potential overlapping activity against known antimalarial drug targets, we performed dose-response studies with each compound against our assembled set of drug-resistant lines and their corresponding parents, in an asexual blood stage proliferation assay (Table 1). Comparisons were made to the drug-sensitive strain 3D7 when a parent was unavailable (TM90C2A, W2 and Dd2). As laboratories conducted EC50 assays with different strains and protocols, all comparisons were made between assays from the same laboratory and under the same assay conditions. Compounds displaying >5-fold EC50 shifts relative to the parent or sensitive strain were flagged as having potentially non-novel targets. Average fold shifts per strain ranged from 0.82 to 2.34, with a median of 1.23 indicating there was not common resistance to any one resistant clone. No resistance patterns were observed when classifying the compounds based on chemical structure, but this was not surprising given the diversity of compounds chosen. On the other hand, given that these confirmed compounds were derived from larger unconfirmed hit lists to which some filtration criteria may have been applied (for example, elimination of obvious dihydrofolate reductase inhibitors[32]), some[10][11][12][13] pre-existing bias may exist in the set.
The 48-h assay was carried out in a 96-well format following standard methods using the ^3H-hypoxanthine incorporation assay. The raw EC50 values corresponding to this assay can be found in Supplementary Data 3. Briefly, this assay relies on the parasite incorporation of labelled hypoxanthine that is proportional to P. falciparum growth. A culture of parasitized RBCs (0.5% parasitemia with a percentage of ring stage higher than 70% of total parasitemia, 2.0% haematocrit) in RPMI-1640, […] and 5 μM hypoxanthine was exposed to drug serial dilutions. Plates were incubated for 24 h at 37 °C, 5% CO2, 5% O2 and 90% N2. After 24 h of incubation, ^3H-hypoxanthine was added and plates were incubated for an additional 24-h period. After that, parasites were harvested on a glass fibre filter using a TOMTEC Cell Harvester 96. Filters were dried and melt-on scintillator sheets were used to determine the incorporation of ^3H-hypoxanthine. Radioactivity was measured using a microbeta counter. Data were normalized using the incorporation of the positive (parasitized RBCs without drug) and negative (same culture with artesunate at 2 μM) controls. All assays were conducted in triplicate using three independently grown cultures, and EC50 values were determined using the XLfit add-in module for Excel (version 2.3.1) from Grafit (version 5.3.1.3), where parameter h is the assay hill slope, x is the compound concentration and y is the inhibition of growth effect. The XLfit equation is: […]
as §3

[3] = system: Stage 5 gametocytes from P. falciparum NF54; assay: Late-stage (stage V) gametocyte survival assay, MitoTracker; format: cell-based, Plasmodium falciparum; conditions: for EC50: Plasmodium falciparum, read-out: Stage 5 Gametocyte EC50; for EC50 fold shift compared to asexual stage: Stage 5 Gametocyte EC50: gametocyte EC50 / 3D7 EC50
Method: The second assay was a late-stage (stage V) gametocyte survival assay, which predicts transmission-blocking activity. […] Positive and negative control compounds included puromycin (0.61±0.11 μM) and atovaquone (> 12.50 μM), respectively.
To test sexual-stage activity, compounds were tested against late-stage gametocytes using a MitoTracker fluorescent-based assay. Specifically, synchronized stage V gametocytes were incubated with compound for 72 h. MitoTracker Red CMXRos (Life Technologies) was added to each well (final concentration: 500 nM) together with saponin to lyse the RBCs. Each plate was then imaged with an Operetta High Content Imaging System (Perkin Elmer) for fluorescence (590–640 nm). Varying levels of compound concentration were used (1.25 μM or 12.5 μM) due to the stock concentration supplied.
The gametocytocidal activity was measured using high-content image analysis software (Harmony, Perkin Elmer). The readout was based on number of metabolically active gametocytes per well.

[4] = system: GNF449-R2 (PfATP4 I203L and P990R, parent Dd2); assay: Cross-resistance EC50 assay, GNF449-R2; format: cell-based; conditions: Plasmodium falciparum, SYBR green 72 hour assay, asynchronized parasites, 96-well or 1536-well format
Excerpt: as §1, §2, §3

[5] = system: GNF156R (PfCARL L830V, S1076I and M81I, parent Dd2); assay: Cross-resistance EC50 assay, GNF156R; format: cell-based; conditions: Plasmodium falciparum, SYBR green 72 hour assay, asynchronized parasites, 96-well or 1536-well format
Excerpt: as §1, §2, §3

Row | SMILES | EC50 [1] | EC50 (PfCRT-Q352R (parent Dd2)) | EC50 [2] | EC50 ([3]; NF54, 72 h) | EC50 [4] | EC50 [5] | EC50 ([3]; P. falciparum NF54, 72 h) | EC50 fold shift compared to asexual stage: Stage 5 Gametocyte EC50 [3]
1 | Cl.c1ccc2c(NCCCCCCNc3c4c(nc5ccccc35)CCCC4)c3c(nc2c1)CCCC3 [MMV019555] | 0.086 µM | 166 nM | 280 nM | 451 nM | 0.262 µM | 0.22 µM |  | 
2 | COc1ccc(N2CCN(C(CNC(=O)C3CCCCC3)c3ccc4c(c3)OCO4)CC2)cc1 (stereo not shown) [MMV019662] | 0.596 µM | 356 nM | 209 nM |  | 0.452 µM | 0.405 µM | 3680 nM | 10.82
3 | COc1ccc(-c2nc(NC(=O)Cc3ccc4c(c3)OCCO4)sc2C)cc1 [MMV019719] | 0.213 µM | 244 nM | 210 nM |  | 0.405 µM | 0.347 µM | 5520 nM | 33.66
4 | Cc1ccc(Oc2ncccc2C(=O)Cc2cccc3cccnc23)c(C)c1 [MMV020746] | 1.49 µM | 142 nM | 201 nM |  | 2.63 µM | 3.38 µM | 3790 nM | 49.87
5 | COc1cc(-c2nc(-c3ccccc3)c(-c3ccccc3)[nH]2)cc(OC)c1O [MMV020750] | 0.873 µM | 725 nM | 674 nM |  | 1.47 µM | 0.663 µM | > 1250 nM | > 3.6
6 | CCCCCCCN(Cc1ccc(OC(C)(C)C(=O)OCC)cc1)C(=O)Nc1ccc(Cl)cc1OCC [MMV021735] | 0.062 µM | 259 nM | 891 nM |  | 1.78 µM | 1.08 µM | > 11600 nM | > 32
7 | CN(C)Cc1ccc(-c2cc3c(-c4ccc(CN(C)C)cc4)ccnc3[nH]2)cc1.O=C(O)C(F)(F)F [MMV022224] | 0.358 µM | 320 nM | 738 nM |  | 0.518 µM | 0.429 µM | 2330 nM | 
8 | Nc1ncc(-c2cn[nH]c2)cc1-c1nc2ccc(F)cc2[nH]1 [MMV023367] | 1.53 µM | 421 nM | 445 nM |  | 2.66 µM | 2.54 µM | 6680 nM | 22.12
9 | CN(C)S(=O)(=O)c1cc(-c2ccc3nccc(-c4cccc(S(N)(=O)=O)c4)c3c2)cnc1N [MMV024038] | 0.878 µM | 107 nM | 194 nM |  | 1 µM | 0.861 µM | 317 nM | 1.39

Source: article PMC4912613, “A broad analysis of resistance development in the malaria parasite” (Nature Communications, 2016)
